Literature values as cited in patent publication US20240164375A1, “LIQUID DISINFECTANT COMPOSITION AND USE THEREOF” (HYPRED, priority 2002, published 2024).

Details: 25° C.

CCCCCCCC(=O)O [octanoic acid]
pKa: 4.85
